Test results reported in patent US7907999B2, “Apparatus and method for measuring physiological characteristics of an intact trachea in vitro” (priority 2006, dated 2011).

Tests used:
[1] = system: epithelium of intact trachea; test: Transepithelial potential difference (Vt) and impedance (Rt) of intact perfused trachea in vitro; parameters: species or system Hartley guinea pigs; conditions: for effect on transepithelial impedance (Rt) / effect on transepithelial potential difference (Vt): intact guinea pig tracheal segment, each agent tested four times; for effect on transepithelial impedance (Rt): current pulses 20 μA; for effect on transepithelial impedance (Rt) / effect on Vt, summary of bar graphs (on average): agent concentration and bath as in Tables 1 and 2; for effect on transepithelial potential difference (Vt): open-circuit, 37° C., agent concentration and bath (intraluminal/extraluminal) as in Tables 1 and 2; for effect on Vt, summary of bar graphs (on average): means of four preparations
From the text: Under open circuit conditions, the first current electrode 60 (FIG. 1) introduces an electrical current into the perfusion liquid flowing into the perfusion device 12. The electrical current flows into the perfusion device, where it emanates from the inlet portion 64 (FIG. 7) and flows across the trachea wall to the second current electrode 62. The first voltage-sensing electrode 56 (FIG. 1) is in electrically continuity with the perfusion liquid in the trachea 14 (via cannula 78, tube 100, and conduits 38 and 46) and therefore senses the electrical potential inside the trachea. The second voltage-sensing electrode 58 senses the electrical potential in the extraluminal bath 54 outside of the trachea. The amplifier 18 calculates the electrical potential difference between the voltage-sensing electrodes 56, 58, which represents the transepithelial potential difference of the trachea. The amplifier 18 can also calculate the transepithelial impedance across the trachea wall based on the applied current and the measured potential difference. […] Hartley guinea pigs were anesthetized by i.p. injection of sodium pentobarbital (65 mg/kg). A 4.2-cm tracheal segment was removed and mounted on a perfusion device 12 at its in situ length. The perfusion device was placed in an extraluminal bath containing a modified Krebs-Henseleit […] solution, and was perfused at 24 ml/min with MKH solution from an intraluminal bath. Water was used as a heat transfer fluid and was supplied to the heat exchanger 20 and the outer jackets of vessels 26, 28 to maintain the temperature of the extraluminal and intraluminal baths at about 37° C. Current pulses (20 μA, 5 s duration, 50 s intervals) were delivered through the current electrodes, while the changes in the transepithelial potential difference (Vt) caused by the current pulses were monitored under open-circuit conditions. Alternatively, and as mentioned above, voltage pulses can be applied across the voltage electrodes under voltage-clamp conditions, while the changes in short circuit current are monitored. The preparation was equilibrated for 2.5 hours to allow Vt and the pressure drop (ΔP) to stabilize before the current pulses were delivered. Basal Vt (the transepithelial voltage in the basal, or steady, state of an unstimulated epithelium) was 14.8±0.8 mV. […] To determine the effects of relaxant agents, when the mechanical and bioelectric responses reached their plateau responses to MCh, the trachea was treated with agents added to the extraluminal or intraluminal bath. The agents used in this example are described in tables 1 and 2 below. The effects of the agents were analyzed statistically using student's paired t-test. P<0.05 was accepted as significant, and is indicated by an asterisk in FIGS. 8-15. The results are presented as means±SE. Each agent was tested four times. Amiloride, NPPB and bumetanide were dissolved in dimethyl sulfoxide (DMSO) (with a final concentration equal to or less than 0.04%). The other agents were prepared in MKH. Terbutaline, histamine, ouabain and bumetanide were added to the extraluminal bath; the other agents were added to the intraluminal bath. Hypersmolar solutions were prepared by adding osmolytes to MKH solution.

[2] = system: smooth muscle of intact trachea; test: Pressure drop (ΔP) of perfusion liquid through intact trachea: smooth muscle contraction/relaxation; parameters: species or system Hartley guinea pigs; conditions: for effect on differential pressure (ΔP), smooth muscle contraction or relaxation: intact guinea pig tracheal segment perfused at 24 ml/min, agent concentration and bath as in Tables 1 and 2, relaxation observed after pre-contraction with MCh
From the text: As described above, the first port 50 of the differential pressure transducer 16 is in fluid communication with the openings 82 in the first cannula 78 and the second port 52 of the differential pressure transducer 16 is in fluid communication with the openings 88 in the second cannula 84. As a result, the differential pressure transducer 16 “sees” the pressure of the perfusion liquid flowing through the trachea 14 at the openings 82 and 88 and can calculate the pressure drop (ΔP) of the perfusion liquid between these two locations (as depicted in FIG. 7). […] Hartley guinea pigs were anesthetized by i.p. injection of sodium pentobarbital (65 mg/kg). A 4.2-cm tracheal segment was removed and mounted on a perfusion device 12 at its in situ length. The perfusion device was placed in an extraluminal bath containing a modified Krebs-Henseleit […] solution, and was perfused at 24 ml/min with MKH solution from an intraluminal bath. Water was used as a heat transfer fluid and was supplied to the heat exchanger 20 and the outer jackets of vessels 26, 28 to maintain the temperature of the extraluminal and intraluminal baths at about 37° C. Current pulses (20 μA, 5 s duration, 50 s intervals) were delivered through the current electrodes, while the changes in the transepithelial potential difference (Vt) caused by the current pulses were monitored under open-circuit conditions. Alternatively, and as mentioned above, voltage pulses can be applied across the voltage electrodes under voltage-clamp conditions, while the changes in short circuit current are monitored. The preparation was equilibrated for 2.5 hours to allow Vt and the pressure drop (ΔP) to stabilize before the current pulses were delivered. Basal Vt (the transepithelial voltage in the basal, or steady, state of an unstimulated epithelium) was 14.8±0.8 mV. […] To determine the effects of relaxant agents, when the mechanical and bioelectric responses reached their plateau responses to MCh, the trachea was treated with agents added to the extraluminal or intraluminal bath. The agents used in this example are described in tables 1 and 2 below. The effects of the agents were analyzed statistically using student's paired t-test. P<0.05 was accepted as significant, and is indicated by an asterisk in FIGS. 8-15. The results are presented as means±SE. Each agent was tested four times. Amiloride, NPPB and bumetanide were dissolved in dimethyl sulfoxide (DMSO) (with a final concentration equal to or less than 0.04%). The other agents were prepared in MKH. Terbutaline, histamine, ouabain and bumetanide were added to the extraluminal bath; the other agents were added to the intraluminal bath. Hypersmolar solutions were prepared by adding osmolytes to MKH solution.

Structure (SMILES) | effect on transepithelial impedance (Rt) [1] | effect on transepithelial potential difference (Vt) [1] | effect on differential pressure (ΔP), smooth muscle contraction or relaxation [2] | effect on Vt, summary of bar graphs (on average) [1] | effect on transepithelial potential (Vt) during pre-contraction ([1]; MCh 3×10^−7M in the extraluminal bath) | EC50 ([2]; Cavia porcellus, methacholine in the extraluminal bath, read-out: EC50 for pre-contracting the trachea) [nM]
[Cl-].[Na+] [NaCl] | decreased Rt | depolarization | relaxation | – | – | –
CCCCNc1cc(C(=O)O)cc(S(N)(=O)=O)c1Oc1ccccc1 [Bumetanide] | did not effect Rt | depolarization | small degree of relaxation of the trachea | – | – | –
OC[C@@H](O)[C@@H](O)[C@H](O)[C@H](O)CO [D-M, D-mannitol] | increased Rt | depolarization | relaxation | – | – | –
N=C(N)NC(=O)c1nc(Cl)c(N)nc1N [amiloride, Amiloride] | increase in Rt | depolarization of the epithelium | Neither agent affected ΔP | – | – | –
O=C(O)c1cc([N+](=O)[O-])ccc1NCCCc1ccccc1 [NPPB] | negligible effect on Rt | depolarization caused by NPPB was slower to develop and greater in magnitude | Neither agent affected ΔP | – | – | –
C[C@@H]1O[C@@H](O[C@H]2C[C@@H](O)[C@]3(CO)[C@H]4[C@H](O)C[C@]5(C)[C@@H](C6=CC(=O)OC6)CC[C@]5(O)[C@@H]4CC[C@]3(O)C2)[C@H](O)[C@H](O)[C@H]1O [Ouabain] | decrease in Rt | immediate depolarization | delayed contraction of the trachea | complete | – | –
CC(=O)OC(C)C[N+](C)(C)C (centres unmarked) [methacholine] | – | – | – | – | induced transepithelial hyperpolarization | 300
CC(C)(C)NCC(O)c1cc(O)cc(O)c1 (centres unmarked) [Terbutaline] | did not effect Rt | transient depolarization in three of the four preparations followed by slow hyperpolarization | relaxation | did not effect Vt appreciably | – | –
NCCc1c[nH]cn1 [Histamine] | did not effect Rt | variable Vt responses | contraction | did not effect Vt appreciably | – | –
